Results taken from US11780833B2, “Emetine derivatives, prodrugs containing same, and methods of treating conditions using same” (HOWARD UNIVERSITY, priority 2011, dated 2023).
Where two headings read alike, the source gives them in different places.

Tests used:
LNCaP cells = assay: Cytotoxicity in LNCaP prostate cancer cell line; type: cell-based; details: Homo sapiens, 168 h, read-out: IC50 after 7 days
Description: (§1) Studies were carried out on three prostate cancer cell lines: LNCaP, PC3, and DU145. […] There was not a significant difference in cytotoxicity of emetine between days 3 and 7. […] This increase is most likely due to the release of emetine from the dithiocarbamate salt over the time period. Further drug release studies at pH 5 confirmed about 45% release of emetine from the dithiocarbamate salt after 3-day incubation at this acidic pH maintained at 37° C., whereas release of emetine from the dithiocarbamate salt was not observed at physiological pH (e.g., about 7.4).
(§2) Various compounds prepared according to Examples 1-5 were studied in LNCaP, PC3, and DU145 cells.

DU145 cells = assay: cells; type: cell-based; details: Homo sapiens
Description: as §1, §2
(§3) Various compounds prepared according to Example 6 were studied in DU145 and PC3 cells. The IC50 was determined at 3, 5, and 7 days.

PC3 cells = assay: cells; type: cell-based; details: Homo sapiens
Description: as §1, §2, §3

[1] = pH-responsiveness by HPLC: emetine released in aqueous phosphate buffer; type: physicochemical; details: 37° C.
Description: Relative rates of hydrolysis of the compounds listed in Table 5 below over a 48 hour period were evaluated using the percent emetine released from the acid catalyzed hydrolysis of compounds 1 to 6.
The compounds were incubated in aqueous phosphate buffer at pH 5.5, 6.5 and 7.4 at 37° C. over a 48 hour period. High performance liquid chromatography (HPLC) was employed to analyze the samples and quantify how much emetine was released. The compounds whose hydrolysis to emetine is shown in table 5 are all 100% stable at physiological pH 7.4 up to a 5 day exposure.

[2] = DU-145, 168 h, read-out: IC50 after 7 days
[3] = PC-3, 168 h, read-out: IC50 after 7 days
[4] = DU-145, 72 h, read-out: IC50 in DU145
[5] = DU-145, 120 h, read-out: IC50 in DU145
[6] = DU-145, 168 h, read-out: IC50 in DU145
[7] = PC-3, 72 h, read-out: IC50 in PC3
[8] = PC-3, 120 h, read-out: IC50 in PC3
[9] = PC-3, 168 h, read-out: IC50 in PC3

| Structure (SMILES) | IC50 (LNCaP cells) [nM] | IC50 (DU145 cells; [2]) [nM] | IC50 (PC3 cells; [3]) [nM] | further results |
| --- | --- | --- | --- | --- |
| CCCCCCSC(=S)N1CCc2cc(OC)c(OC)cc2C1CC1CC2c3cc(OC)c(OC)cc3CCN2CC1CC (stereo not shown) [Compound 4h] | 1610 ± 66 | 2300 ± 67 | 3030 ± 160 |  |
| CCC1CN2CCc3cc(OC)c(OC)cc3C2CC1CC1c2cc(OC)c(OC)cc2CCN1C(=S)NCc1ccc(C)cc1 (stereo not shown) [Compound 11j] |  | 2630 ± 106 |  |  |
| CCC1CN2CCc3cc(OC)c(OC)cc3C2CC1CC1c2cc(OC)c(OC)cc2CCN1S(=O)(=O)c1ccccc1 (stereo not shown) [Compound 8e] | 2260 ± 798 | > 10000 | > 10000 |  |
| CCC1CN2CCc3cc(OC)c(OC)cc3C2CC1CC1c2cc(OC)c(OC)cc2CCN1S(=O)(=O)c1ccc(F)cc1 (stereo not shown) [Compound 8c] |  | 8038 ± 60 | 4580 ± 383 |  |
| CCC1CN2CCc3cc(OC)c(OC)cc3C2CC1CC1c2cc(OC)c(OC)cc2CCN1C(=O)NCc1ccccc1 (stereo not shown) [Compound 13e] | 2120 ± 576 |  |  |  |
| CCC1CN2CCc3cc(OC)c(OC)cc3C2CC1CC1c2cc(OC)c(OC)cc2CCN1C(=O)OCc1ccccc1 (stereo not shown) [Compound 5b] | 2160 ± 122 |  |  |  |
| CCC1CN2CCc3cc(OC)c(OC)cc3C2CC1CC1c2cc(OC)c(OC)cc2CCN1C(=O)CCC(=O)O (stereo not shown) [Compound 15e2] |  |  |  | IC50 (DU145 cells; [4]): 733 ± 22 nM; IC50 (DU145 cells; [5]): 641 ± 54.3 nM; IC50 (DU145 cells; [6]): 802 ± 19.8 nM; IC50 (PC3 cells; [7]): 2500 ± 72.2 nM; IC50 (PC3 cells; [8]): 1820 ± 161 nM; IC50 (PC3 cells; [9]): 2150 ± 131 nM |
| CCCCCCNC(=S)N1CCc2cc(OC)c(OC)cc2C1CC1CC2c3cc(OC)c(OC)cc3CCN2CC1CC (stereo not shown) [Compound 11l] | 1700 ± 144 |  | 2450 ± 323 |  |
| CCC1CN2CCc3cc(OC)c(OC)cc3C2CC1CC1c2cc(OC)c(OC)cc2CCN1C(=S)Nc1ccc(Br)cc1 (stereo not shown) [Compound 11d] | 339 ± 32.7 |  | 443 ± 38.3 |  |
| CCC1CN2CCc3cc(OC)c(OC)cc3C2CC1CC1c2cc(OC)c(OC)cc2CCN1C(=O)/C=C\C(=O)O (stereo not shown) [Compound 2] |  |  |  | % Emetine at pH 5.5 ([1]; pH 5.5, 0 hr): 0.0%; % Emetine at pH 5.5 ([1]; pH 5.5, 24 hrs): 36.3%; % Emetine at pH 5.5 ([1]; pH 5.5, 48 hrs): 54.10%; % Emetine at pH 6.5 ([1]; pH 6.5, 0 hr): 0.0%; % Emetine at pH 6.5 ([1]; pH 6.5, 24 hrs): 35.5%; % Emetine at pH 7.4 to 8.0 over 72 hrs ([1]; pH 7.4 to 8.0, 0 hrs): 0.0%; % Emetine at pH 7.4 to 8.0 over 72 hrs ([1]; pH 7.4 to 8.0, 24 hrs): 0.0%; % Emetine at pH 7.4 to 8.0 over 72 hrs ([1]; pH 7.4 to 8.0, 48 hrs): 0.0% |
| CCC1CN2CCc3cc(OC)c(OC)cc3C2CC1CC1c2cc(OC)c(OC)cc2CCN1C(=S)NCc1ccc(F)cc1 (stereo not shown) [Compound 11i] |  |  | 5270 ± 372 |  |
| CCC1CN2CCc3cc(OC)c(OC)cc3C2CC1CC1c2cc(OC)c(OC)cc2CCN1C(=S)SCc1ccccc1 (stereo not shown) [Compound 4f] | 1970 ± 88 | 1980 ± 213 | 1560 ± 290 |  |
| CCC1CN2CCc3cc(OC)c(OC)cc3C2CC1CC1c2cc(OC)c(OC)cc2CCN1C(=S)Nc1ccc(Cl)cc1 (stereo not shown) [Compound 11c] |  |  | 505 ± 15.9 |  |
| CCC1CN2CCc3cc(OC)c(OC)cc3C2CC1CC1c2cc(OC)c(OC)cc2CCN1C(=S)Nc1ccccc1 (stereo not shown) [Compound 11a] |  |  | 484 ± 24.7 |  |
| CCC1CN2CCc3cc(OC)c(OC)cc3C2CC1CC1c2cc(OC)c(OC)cc2CCN1S(=O)(=O)c1ccc(C)cc1 (stereo not shown) [Compound 8a] |  | 6240 ± 98 |  |  |
| CCC1CN2CCc3cc(OC)c(OC)cc3C2CC1CC1c2cc(OC)c(OC)cc2CCN1C(=O)/C(Cl)=C(\Cl)C(=O)O (stereo not shown) [Compound 15b2] |  |  |  | IC50 (DU145 cells; [4]): 6530 ± 85.2 nM; IC50 (DU145 cells; [5]): 5990 ± 238 nM; IC50 (DU145 cells; [6]): 5218 ± 45.9 nM; IC50 (PC3 cells; [7]): 7580 ± 135 nM; IC50 (PC3 cells; [8]): 5990 ± 238 nM; IC50 (PC3 cells; [9]): 7510 ± 168 nM |
| CCC1CN2CCc3cc(OC)c(OC)cc3C2CC1CC1c2cc(OC)c(OC)cc2CCN1S(=O)(=O)c1ccc(OC)cc1 (stereo not shown) [Compound 8f] |  |  | 6080 ± 105 |  |
| CCC1CN2CCc3cc(OC)c(OC)cc3C2CC1CC1c2cc(OC)c(OC)cc2CCN1C(=S)NCc1ccc(Cl)cc1 (stereo not shown) [Compound 11g] | 1590 ± 151 | 2320 ± 91 | 2860 ± 66.2 |  |
| CCC1CN2CCc3cc(OC)c(OC)cc3C2CC1CC1c2cc(OC)c(OC)cc2CCN1C(=S)SCCC(N)=O (stereo not shown) [Compound 4b] | > 10000 | > 10000 | 6560 ± 1110 |  |
